# Patent US20060160095A1, “Survivin” (EiRx Therapeutics Limited, priority 2002, published 2006)
# Columns and labels:
# Survivin mRNA = experiment: LifeGrid microarray of Survivin transcripts in neutrophils; type: cell-based, human; conditions: between 2 and 6 h following addition of GM-CSF
# Method: Primary human neutrophils are isolated and purified from peripheral blood of normal healthy individuals using standard techniques. Neutrophils are resuspended in serum containing culture medium together with GM-CSF (50 U) at a concentration of 2×10^6/ml, and cultured for 0 h (control), 2 h, 4 h and 6 h at 37° C. Total RNA is then prepared from both groups using acid phenol/guanidine isothiocyanate extraction (RNAzol B; Biogenesis), or RNeasy RNA preparation kits (Qiagen). Any contaminating genomic DNA is removed by DNase treatment (DNase I, Gibco-BRL). […]
# This example describes the use of a STORM Phosphoimager to quantitatively image positive signals across the filter arrays. […]
# The captured image file is then analysed using software such as Array Vision (Imaging Research Inc.; See FIG. 5). […] This program contains facilities for spot detection and quantification, and background detection and quantification. […] As the data is imported to the database, a Normalisation factor is calculated and the sDENs values modified accordingly. […] A normalization factor may be derived from Linear Regression calculated by reference to housekeeping genes. Alternatively, the Global Mean is calculated as the average of the sDens values across all of the arrays to be compared and a normalisation factor is then derived by division of the overall spot density with the Global Mean value. […]
# caspase-3 = experiment: Caspase-3 immunoblotting in neutrophils; type: cell-based, human; conditions: neutrophils cultured with GM-CSF or G-CSF for 10 h
# Method: Immunoblotting is carried out as described above using supernatants of cell lysates. Caspase-3 is detected using a polyclonal anti-caspase-3 antibody (1/1000; Becton Dickinson Pharmingen, Heidelberg, Germany))
# Neutrophils (2.5×10^6) are cultured in the presence or absence of GM-CSF (50 ng/ml), G-CSF (25 ng/ml), 2-MOE modified antisense or mismatch survivin oligonucleotides at the indicated concentrations for 10 h, washed with cold PBS and subsequently lysed in 50 μl cell lysis buffer (50 mM HEPES, pH 7.4/0.1% Chaps/5 mM DTT/0.1 mM EDTA) using a Teflon glass homogenizer (VWR International, Ismaning, Germany) on ice for 10 min. After a 10-min centrifugation step at 10,000×g at 4° C., an aliquot of the supernatant is saved for caspase-3 immunoblotting and caspase 3-like activity is measured in 10 μl supernatants as enzymatic-conversion of the colorimetric substrate Ac-DEVD-pNA at 405 nm according to the manufacturer's instructions (QuantiZyme caspase 3 cellular activity assay kit, Biomol, Plymouth Meeting, Pa., USA).
substance,measurement,setting,value
Granulocyte macrophage colony-stimulating factor [GM-CSF],Expression of Survivin (microarray fold change),Survivin mRNA,up-regulated
same,caspase-3 proform and 17-kDa fragment levels with cytokine,caspase-3,maintain greater amounts of the caspase-3 proform
